Assay results from PubChem BioAssay (NCI).
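Exposure lasted 48 hours, with cells grown in 96-well plates and compounds tested at five concentrations. Definition used: TGI = concentration required for complete inhibition of growth.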

Tests used:
Assay in all cases: inhibition of tumour cell growth, NCI panel, 48 h
786-0 renal = test system: 786-0 renal
A549 NSCLC = test system: A549 NSCLC
ACHN renal = test system: ACHN renal
CAKI-1 renal = test system: CAKI-1 renal
CCRF-CEM leukemia = test system: CCRF-CEM leukemia
COLO 205 colon = test system: COLO 205 colon
DLD-1 colon = test system: DLD-1 colon
DMS 114 small cell lung = test system: DMS 114 small cell lung
EKVX NSCLC = test system: EKVX NSCLC
HCC-2998 colon = test system: HCC-2998 colon
HCT-116 colon = test system: HCT-116 colon
HCT-15 colon = test system: HCT-15 colon
HL-60(TB) leukemia = test system: HL-60(TB) leukemia
HOP-18 NSCLC = test system: HOP-18 NSCLC
HOP-62 NSCLC = test system: HOP-62 NSCLC
HOP-92 NSCLC = test system: HOP-92 NSCLC
HT29 colon = test system: HT29 colon
IGROV1 ovarian = test system: IGROV1 ovarian
K-562 leukemia = test system: K-562 leukemia
KM12 colon = test system: KM12 colon
KM20L2 colon = test system: KM20L2 colon
LOX IMVI melanoma = test system: LOX IMVI melanoma
LXFL 529 NSCLC = test system: LXFL 529 NSCLC
M14 melanoma = test system: M14 melanoma
M19-MEL melanoma = test system: M19-MEL melanoma
MALME-3M melanoma = test system: MALME-3M melanoma
MOLT-4 leukemia = test system: MOLT-4 leukemia
NCI-H226 lung = test system: NCI-H226 lung
NCI-H23 lung = test system: NCI-H23 lung
NCI-H460 lung = test system: NCI-H460 lung
NCI-H522 lung = test system: NCI-H522 lung
OVCAR-3 ovarian = test system: OVCAR-3 ovarian
OVCAR-4 ovarian = test system: OVCAR-4 ovarian
OVCAR-5 ovarian = test system: OVCAR-5 ovarian
OVCAR-8 ovarian = test system: OVCAR-8 ovarian
RPMI-8226 leukemia = test system: RPMI-8226 leukemia
RXF 393 renal = test system: RXF 393 renal
RXF-631 renal = test system: RXF-631 renal
SF-268 CNS = test system: SF-268 CNS
SF-295 CNS = test system: SF-295 CNS
SF-539 CNS = test system: SF-539 CNS
SK-MEL-2 melanoma = test system: SK-MEL-2 melanoma
SK-MEL-28 melanoma = test system: SK-MEL-28 melanoma
SK-MEL-5 melanoma = test system: SK-MEL-5 melanoma
SK-OV-3 ovarian = test system: SK-OV-3 ovarian
SN12C renal = test system: SN12C renal
SNB-19 CNS = test system: SNB-19 CNS
SNB-75 CNS = test system: SNB-75 CNS
SR leukemia = test system: SR leukemia
SW-620 colon = test system: SW-620 colon
TK-10 renal = test system: TK-10 renal
U251 CNS = test system: U251 CNS
UACC-257 melanoma = test system: UACC-257 melanoma
UACC-62 melanoma = test system: UACC-62 melanoma
UO-31 renal = test system: UO-31 renal

Which results are given for COc1cc(C(=O)Nc2cccc3ccccc23)c(Br)c(OC)c1OC?
TGI (786-0 renal): 3.1 µM; TGI (A549 NSCLC): > 100 µM; TGI (ACHN renal): > 100 µM; TGI (CAKI-1 renal): > 100 µM; TGI (CCRF-CEM leukemia): > 100 µM; TGI (COLO 205 colon): > 100 µM; TGI (DLD-1 colon): > 100 µM; TGI (DMS 114 small cell lung): > 100 µM; TGI (EKVX NSCLC): > 100 µM; TGI (HCC-2998 colon): > 100 µM; TGI (HCT-116 colon): > 100 µM; TGI (HCT-15 colon): > 100 µM; TGI (HL-60(TB) leukemia): 76.2 µM; TGI (HOP-18 NSCLC): 19.5 µM; TGI (HOP-62 NSCLC): > 100 µM; TGI (HOP-92 NSCLC): > 100 µM; TGI (HT29 colon): > 100 µM; TGI (IGROV1 ovarian): > 100 µM; TGI (K-562 leukemia): > 100 µM; TGI (KM12 colon): > 100 µM; TGI (KM20L2 colon): > 100 µM; TGI (LOX IMVI melanoma): > 100 µM; TGI (LXFL 529 NSCLC): > 100 µM; TGI (M14 melanoma): > 100 µM; TGI (M19-MEL melanoma): > 100 µM; TGI (MALME-3M melanoma): > 100 µM; TGI (MOLT-4 leukemia): > 100 µM; TGI (NCI-H226 lung): > 100 µM; TGI (NCI-H23 lung): > 100 µM; TGI (NCI-H460 lung): > 100 µM; TGI (NCI-H522 lung): > 100 µM; TGI (OVCAR-3 ovarian): > 100 µM; TGI (OVCAR-4 ovarian): > 100 µM; TGI (OVCAR-5 ovarian): > 100 µM; TGI (OVCAR-8 ovarian): 13.6 µM; TGI (RPMI-8226 leukemia): > 100 µM; TGI (RXF 393 renal): > 100 µM; TGI (RXF-631 renal): > 100 µM; TGI (SF-268 CNS): > 100 µM; TGI (SF-295 CNS): > 100 µM; TGI (SF-539 CNS): > 100 µM; TGI (SK-MEL-2 melanoma): > 100 µM; TGI (SK-MEL-28 melanoma): > 100 µM; TGI (SK-MEL-5 melanoma): > 100 µM; TGI (SK-OV-3 ovarian): > 100 µM; TGI (SN12C renal): > 100 µM; TGI (SNB-19 CNS): > 100 µM; TGI (SNB-75 CNS): > 100 µM; TGI (SR leukemia): > 100 µM; TGI (SW-620 colon): > 100 µM; TGI (TK-10 renal): > 100 µM; TGI (U251 CNS): > 100 µM; TGI (UACC-257 melanoma): > 100 µM; TGI (UACC-62 melanoma): > 100 µM; TGI (UO-31 renal): 86.1 µM
